Common to all, as to assay: In vitro antimicrobial activity (M.I.C.)
Assay type in all cases: cell-based

For assay [1], the system named is Trichophyton mentagrophytes 193. The note with it: average values. The protocol:
(§1) The first is prepared from Krameria triandra and from Mesua ferrea. The activity, expressed in M.I.C. (minimum inhibitory concentration), was evaluated by normal terms within the art. Moreover, one of ordinary skill in the art with little or no experimentation can optimize the results for a particular antimicrobial compound or mixtures of compounds.

The test system of assay [2] is Candida albicans ATCC 10231. The note with it: ATCC10231, average values. The protocol: as §1
For assay [3], the system named is Staphilococcus epidermis CPHL. The note with it: average values. On the procedure:
as §1

Assay [4] has as its system Staphilococcus aureus MPR5. The note with it: average values. On the procedure:
as §1

The subject of assay [5] is Pseudomonas aeruginosa CNUR 4. The note with it: CNUR4, average values. The protocol: as §1
Assay [6] concerns Escherichia coli CNUR 1. The note with it: CNUR1, average values. On the procedure:
as §1

The test system of assay [7] is Propionibacterium acnes. The note with it: Cutibacterium acnes, average values. The protocol: as §1
The test system of assay [8] is Streptococcus feaecalis LEP Br. The note with it: average values. The protocol:
as §1

For assay [9], the system named is Staphilococcus aureus ATCC6538. The note with it: average values. On the procedure: as §1
In assay [10] the test system is Bacteroides fragilis. The note with it: average values. The protocol:
as §1

Assay [11] deals with Acinetobacter cal. OSMPV. The note with it: average values. The protocol: as §1

In brackets after ≈: the same amount, converted by molar mass.

As a reminder, the MIC is the smallest concentration in the dilution series that meets the test's criterion for growth inhibition. In the case of `Clc1ccc(COC(Cn2ccnc2)c2ccc(Cl)cc2Cl)c(Cl)c1` (centres unmarked) [miconazole], the MIC in [1] and in assay [2] was 2 µg/mL (≈ 4.81 µM) throughout.
With `CN1CCN(c2c(F)cc3c(=O)c(C(=O)O)cn4c3c2SCC4)CC1` [rufloxacin], the MIC stood at 1 µg/mL (≈ 2.75 µM) in assay [3]; 1 µg/mL (≈ 2.75 µM) in assay [4]; 32 µg/mL (≈ 88.1 µM) in [5]; 0.51 µg/mL (≈ 1.4 µM) in assay [6]; 32 µg/mL (≈ 88.1 µM) in assay [7]; 16 µg/mL (≈ 44 µM) in [8]. Moreover, the MIC in [9] worked out at 0.5 µg/mL (≈ 1.38 µM); in assay [10], 32 µg/mL (≈ 88.1 µM); in [11], 2 µg/mL (≈ 5.5 µM).

These data come from US6475536B2, “Pharmaceutical and cosmetic formulations with antimicrobial activity” (Indena S.p.A., priority 1996, dated 2002).
